# Counter-ions that a name gives are not always drawn.
# B1: IL-10: Recombinant Murine IL-10, anti-inflammatory cytokine; cited Kd is for human IL-10 (protein, UniProt P18893 19-178, looked up)
# Interleukin-10: SRGQYSREDNNCTHFPVGQSHMLLELRTAFSQVKTFFQTKDQLDNILLTDSLMQDFKGYLGCQALSEMIQFYLVEVMPQAEKHGPEIKEHLNSLGEKLKTLRMRLRRCHRFLPCENKSKAVEQVKSDFNKLQDQGVYKAMNEFDIFINCIEAYMMIKMKS
# Experiments:
# [1] = package insert; cited from earlier work
# [2] = Lidocaine release study, lidocaine-loaded nanoparticles in crosslinked gelatin hydrogel (UV-Vis 280 nm); format: physicochemical
# Experimental: For the lidocaine release study, a coated tubing which comprises a dried 1 cm by 0.5 cm piece of gelatin-lidocaine (100 mg lidocaine in 0.5 ml gelatin, 1% GA) was used. The coated tubing was placed in a 7 ml glass scintillation vial for the release study. The release solution medium (1 ml of PBS) was added to the scintillation vials, and the sample was incubated at 37° C. 1 ml samples were taken daily, and the release solution was replenished. The day 0 sample was taken 5 minutes after adding the release solution to the vials to measure the amount of lidocaine not incorporated into the gels.
# The amount of lidocaine released as an effect of different nanoparticle formulations and differing amounts of lidocaine was determined using a UV-Vis spectrophotometer (GENESYS 10S UV-Vis) at 280 nm wavelength and samples were performed in triplicate (n=3). As a control, the same gelatin samples were prepared without the addition of lidocaine to measure any change in absorbance readings from the gel itself.
# [3] = Lidocaine release study, gelatin-lidocaine hydrogel (UV-Vis 280 nm); format: physicochemical
# Experimental: The coated tubing was placed in a 7 ml glass scintillation vial for the release study.
# The release solution medium (1 ml of PBS) was added to the scintillation vials, and the sample was incubated at 37° C. 1 ml samples were taken daily, and the release solution was replenished. The day 0 sample was taken 5 minutes after adding the release solution to the vials to measure the amount of lidocaine not incorporated into the gels. […] As a control, the same gelatin samples were prepared without the addition of lidocaine to measure any change in absorbance readings from the gel itself.
# [4] = In vitro protein release test from SRTG micelle system (ELISA); format: physicochemical; settings: for loading efficiency of protein in the hydrogel / loaded protein released by day 1 (burst release): SRTG 5 wt% + micelle NPs; for loading efficiency of protein in the hydrogel: 500 ng of each protein, day 0 sample after 5 min; for loaded protein released by day 1 (burst release): PBS with 0.2% BSA, 37° C.; for sustained release rate: after day 0 / day 1 through 28 days
# Experimental: Proton nuclear magnetic resonance (1H NMR) was completed with a Varian Inova 500 NMR spectrometer. 1H NMR was used to confirm the structure of PEG-PSHU-PEG. The PEG-PSHU-PEG samples to be analyzed were dissolved in 600 μL of DMSO-d6. Protein Release Test. […] Solutions were mixed and left to dissolve overnight at 4° C. […] Then, 1 mL of warm (37° C.) release solution (lx PBS with 0.2% BSA) was added to the vials. After 5 min, 1 mL of release solution was removed from each sample for the day 0 time point, and 1 mL of fresh warm release solution was added. Samples were then taken every 24 h and immediately placed in a −80° C. freezer for further analysis. Enzyme-linked immunosorbent assay (ELISA) was used to quantify the concentration of proteins in the release solution samples following the manufacturer's instructions (Peprotech, Rocky Hill, N.J.). ELISA color development was monitored with a BioTek Synergy 2 Multi-Mode Reader at 405 nm with wavelength correction set at 650 nm. The results of three replicates were averaged. The hydrogels were initially allowed to stabilize for 5 min at which a sample was taken to determine the loading efficiency of the proteins in the hydrogels (day 0).
# [5] = tested on: NIH3T3 cells; settings: 10 pg/mL, low serum or serum-free medium; cited from earlier work
# [6] = cited from earlier work
molecule,measurement,setting,value
CCN(CC)CC(=O)Nc1c(C)cccc1C [lidocaine hydrochloride],maximum dose at one time,[1],≤ 300 mg
same,maximum subcutaneous dose,[1],about 4.5 mg/kg
CCN(CC)CC(=O)Nc1c(C)cccc1C [lidocaine],duration of sustained release of lidocaine,"[2]; 20 mg and 10 mg NP groups loaded with 100 mg of lidocaine, in gelatin hydrogel, PBS, 37° C.",10 days
same,duration of sustained release of lidocaine,"[2]; 50 mg lidocaine groups, NP formulations in gelatin hydrogel",11 days
same,"period of continued stable lidocaine elution, post-sterilization","[2]; Example 6, chest tube coated with micelle-loaded crosslinked gelatin",3 to 7 days
same,"period of continued stable lidocaine elution, post-sterilization","[3]; Example 7, chest tube coated with lidocaine loaded crosslinked gelatin",3 to 7 days
same,duration of sustained release of lidocaine,"[3]; various gelatin and glutaraldehyde concentrations, coated tubing method",10 days
PDGF,loading efficiency of protein in the hydrogel,[4],99%
same,loaded protein released by day 1 (burst release),[4],approximately 3%
same,sustained release rate,[4]; SRTG micelle system,0.39 ng per day
same,duration of sustained release from the delivery system,"[4]; in vitro, SRTG micelle system",28 days
"TGF-β1: transforming growth factor-β1, literature example",effect on growth rate of NIH3T3 cells,[5],stimulated the growth rate of NIH3T3 cells
B1,loading efficiency of protein in the hydrogel,[4],93%
same,loaded protein released by day 1 (burst release),[4],approximately 21%
same,sustained release rate,[4]; SRTG micelle system,0.24 ng per day
same,half-life in vivo,[6],less than 5 h

# Source: patent publication US20230110354A1, “THERAPEUTIC AGENT DELIVERY SYSTEMS AND METHODS OF FORMING AND USES THEREOF” (The Regents of the University of Colorado, a Body Corporate, priority 2020, published 2023)
